The supplement of paper PMC8617591

How the values were obtained:
[1] = system: Mycobacterium tuberculosis Erdman (autoluminescent); assay: FIC90 (Loewe) at 90% inhibition (log2); higher = more antagonistic
Experimental: (§1)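 DiaMOND equipotent two-drug combination dose responses against autoluminescent M. tuberculosis Erdman in 8 in vitro models. Read-out is OD600, or luminescence for the intracellular and dormancy models, normalised to untreated wells. Hill-fit Einf, AUC25 and GRinf are potency metrics; FIC50 and FIC90 are Loewe-additivity fractional inhibitory concentrations, given as log2 (negative = synergy). Replicates are averaged.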

[2] = system: Mycobacterium tuberculosis Erdman (autoluminescent); assay: FIC50 (Loewe) at 50% inhibition (log2); higher = more antagonistic
Experimental: as §1

[3] = system: Mycobacterium tuberculosis Erdman (autoluminescent); assay: Einf, fitted maximum growth inhibition of combination (fraction); higher = stronger maximal inhibition
Experimental: as §1

[4] = system: Mycobacterium tuberculosis Erdman (autoluminescent); assay: AUC25, normalised area under dose response up to IC25 (fraction (0-1)); higher = more potent at low dose
Experimental: as §1

[5] = system: Mycobacterium tuberculosis Erdman (autoluminescent); assay: GRinf, maximum normalised growth rate inhibition (unitless (-1 to 1)); higher = less effect (negative = killing)
Experimental: as §1

O=[N+]([O-])c1cn2c(n1)OC[C@@H](OCc1ccc(OC(F)(F)F)cc1)C2 [pretomanid] + CO[C@H]1/C=C/O[C@@]2(C)Oc3c(C)c(O)c4c(O)c(c(/C=N/N5CCN(C6CCCC6)CC5)c(O)c4c3C2=O)NC(=O)/C(C)=C\C=C\[C@H](C)[C@H](O)[C@@H](C)[C@@H](O)[C@@H](C)[C@H](OC(C)=O)[C@@H]1C [rifapentine]
Settings	AUC25, [4]	Einf, [3]	FIC50, [2]	FIC90, [1]	GRinf, [5]
in vitro model: acidic pH 5.7, time point: constant (~7 days, model-specific)	0.101	0.925	0.285	–	-0.447
in vitro model: acidic pH 5.7, time point: terminal (~4-5 doublings, model-specific)	0.0525	0.991	0.359	0.243	-0.276
in vitro model: intracellular J774, time point: constant = terminal	–	0.991	–	-0.454	-0.347

Settings	AUC25, [4]	Einf, [3]	FIC50, [2]	FIC90, [1]	GRinf, [5]
in vitro model: butyrate, time point: constant (~7 days, model-specific)	0.0925	0.929	0.307	0.357	-0.0285
in vitro model: butyrate, time point: terminal (~4-5 doublings, model-specific)	0.0679	0.963	0.223	0.114	-0.0133
in vitro model: cholesterol 0.05 mM, time point: constant (~7 days, model-specific)	0.114	0.732	0.253	–	-0.354
in vitro model: cholesterol 0.05 mM, time point: terminal (~4-5 doublings, model-specific)	0.0965	0.93	0.285	1.63	-0.257
in vitro model: cholesterol-high 0.2 mM, time point: constant (~7 days, model-specific)	0.0774	0.911	0.634	–	-0.247
in vitro model: cholesterol-high 0.2 mM, time point: terminal (~4-5 doublings, model-specific)	0.0546	0.979	0.806	0.721	-0.463
in vitro model: dormancy (butyrate + nitrate, low O2), time point: constant (~7 days, model-specific)	0.0571	0.904	0.527	0.277	0.192
in vitro model: dormancy (butyrate + nitrate, low O2), time point: terminal (~4-5 doublings, model-specific)	0.0438	0.983	0.383	0.448	-0.148
in vitro model: standard 7H9 glycerol, time point: constant = terminal	0.0697	0.928	-0.158	0.519	0.0428
in vitro model: valerate, time point: constant (~7 days, model-specific)	0.127	0.892	0.377	–	-0.0483
in vitro model: valerate, time point: terminal (~4-5 doublings, model-specific)	0.0738	0.954	0.21	0.484	-0.107

O=[N+]([O-])c1cn2c(n1)OC[C@@H](OCc1ccc(OC(F)(F)F)cc1)C2 [pretomanid] + CO[C@H]1/C=C/O[C@@]2(C)Oc3c(C)c(O)c4c(O)c(c(/C=N/N5CCN(C)CC5)c(O)c4c3C2=O)NC(=O)/C(C)=C\C=C\[C@H](C)[C@H](O)[C@@H](C)[C@@H](O)[C@@H](C)[C@H](OC(C)=O)[C@@H]1C [rifampicin]
Settings	AUC25, [4]	Einf, [3]	FIC50, [2]	FIC90, [1]	GRinf, [5]
in vitro model: acidic pH 5.7, time point: constant (~7 days, model-specific)	0.106	0.944	0.259	–	-0.224
in vitro model: acidic pH 5.7, time point: terminal (~4-5 doublings, model-specific)	0.0463	0.985	0.545	-0.025	-0.239
in vitro model: intracellular J774, time point: constant = terminal	–	0.966	–	-0.863	-0.281

Settings	AUC25, [4]	Einf, [3]	FIC50, [2]	FIC90, [1]	GRinf, [5]
in vitro model: butyrate, time point: constant (~7 days, model-specific)	0.0943	0.915	0.189	-0.398	0.00239
in vitro model: butyrate, time point: terminal (~4-5 doublings, model-specific)	0.0817	0.966	-0.0797	-0.223	-0.0223
in vitro model: cholesterol 0.05 mM, time point: constant (~7 days, model-specific)	0.108	0.691	0.468	–	-0.0815
in vitro model: cholesterol 0.05 mM, time point: terminal (~4-5 doublings, model-specific)	0.0829	0.905	0.242	-0.715	-0.0976
in vitro model: cholesterol-high 0.2 mM, time point: constant (~7 days, model-specific)	0.0743	0.902	0.509	0.733	-0.211
in vitro model: cholesterol-high 0.2 mM, time point: terminal (~4-5 doublings, model-specific)	0.0653	1	0.521	0.306	-0.595
in vitro model: dormancy (butyrate + nitrate, low O2), time point: constant (~7 days, model-specific)	0.0843	0.942	0.23	-0.00861	0.0579
in vitro model: dormancy (butyrate + nitrate, low O2), time point: terminal (~4-5 doublings, model-specific)	0.0526	0.986	0.0748	0.236	-0.16
in vitro model: standard 7H9 glycerol, time point: constant = terminal	0.0517	0.912	-0.316	-1.42	0.0474
in vitro model: valerate, time point: constant (~7 days, model-specific)	0.104	0.877	0.152	–	0.0588
in vitro model: valerate, time point: terminal (~4-5 doublings, model-specific)	0.0482	0.943	0.504	-0.0514	0.0666

O=[N+]([O-])c1cn2c(n1)OC[C@@H](OCc1ccc(OC(F)(F)F)cc1)C2 [pretomanid] + NC(=O)c1cnccn1 [pyrazinamide]
Settings	AUC25, [4]	Einf, [3]	FIC50, [2]	FIC90, [1]	GRinf, [5]
in vitro model: acidic pH 5.7, time point: constant (~7 days, model-specific)	0.088	0.831	-0.419	-0.689	-0.435
in vitro model: acidic pH 5.7, time point: terminal (~4-5 doublings, model-specific)	0.0893	0.968	-0.536	-1.56	-0.433
in vitro model: intracellular J774, time point: constant = terminal	–	1	–	-0.0198	-0.358

Settings	AUC25, [4]	Einf, [3]	FIC50, [2]	FIC90, [1]	GRinf, [5]
in vitro model: butyrate, time point: constant (~7 days, model-specific)	0.115	0.869	-0.24	1.15	0.144
in vitro model: butyrate, time point: terminal (~4-5 doublings, model-specific)	0.109	0.936	-0.0126	1.79	0.0694
in vitro model: cholesterol 0.05 mM, time point: constant (~7 days, model-specific)	0.137	0.752	–	–	-0.38
in vitro model: cholesterol 0.05 mM, time point: terminal (~4-5 doublings, model-specific)	0.109	0.922	0.0466	–	-0.194
in vitro model: cholesterol-high 0.2 mM, time point: constant (~7 days, model-specific)	0.0725	0.886	-0.0986	–	-0.169
in vitro model: cholesterol-high 0.2 mM, time point: terminal (~4-5 doublings, model-specific)	0.0665	0.998	0.341	-0.19	-0.445
in vitro model: dormancy (butyrate + nitrate, low O2), time point: constant (~7 days, model-specific)	0.0996	0.936	-0.574	0.149	0.076
in vitro model: dormancy (butyrate + nitrate, low O2), time point: terminal (~4-5 doublings, model-specific)	0.0823	0.995	-0.829	0.679	-0.921
in vitro model: standard 7H9 glycerol, time point: constant = terminal	0.067	0.915	-0.256	–	0.0921
in vitro model: valerate, time point: constant (~7 days, model-specific)	0.093	0.833	0.0923	–	0.163
in vitro model: valerate, time point: terminal (~4-5 doublings, model-specific)	0.065	0.923	-0.176	-0.316	0.118

NC(=O)c1cnccn1 [pyrazinamide] + CO[C@H]1/C=C/O[C@@]2(C)Oc3c(C)c(O)c4c(O)c(c(/C=N/N5CCN(C6CCCC6)CC5)c(O)c4c3C2=O)NC(=O)/C(C)=C\C=C\[C@H](C)[C@H](O)[C@@H](C)[C@@H](O)[C@@H](C)[C@H](OC(C)=O)[C@@H]1C [rifapentine]
Settings	AUC25, [4]	Einf, [3]	FIC50, [2]	FIC90, [1]	GRinf, [5]
in vitro model: acidic pH 5.7, time point: constant (~7 days, model-specific)	0.0839	0.93	-0.598	–	-0.369
in vitro model: acidic pH 5.7, time point: terminal (~4-5 doublings, model-specific)	0.0754	0.997	-0.129	-1.04	-0.31
in vitro model: intracellular J774, time point: constant = terminal	–	0.964	–	-0.235	-0.243

Settings	AUC25, [4]	Einf, [3]	FIC50, [2]	FIC90, [1]	GRinf, [5]
in vitro model: butyrate, time point: constant (~7 days, model-specific)	0.109	0.875	0.371	1.25	0.119
in vitro model: butyrate, time point: terminal (~4-5 doublings, model-specific)	0.0943	0.941	0.431	1	0.108
in vitro model: cholesterol 0.05 mM, time point: constant (~7 days, model-specific)	0.127	0.63	–	–	0.0214
in vitro model: cholesterol 0.05 mM, time point: terminal (~4-5 doublings, model-specific)	0.105	0.896	0.52	–	-0.284
in vitro model: cholesterol-high 0.2 mM, time point: constant (~7 days, model-specific)	0.0949	0.922	0.664	–	-0.246
in vitro model: cholesterol-high 0.2 mM, time point: terminal (~4-5 doublings, model-specific)	0.0793	1	1.19	0.905	-0.711
in vitro model: dormancy (butyrate + nitrate, low O2), time point: constant (~7 days, model-specific)	0.0917	0.902	-0.609	1.09	0.258
in vitro model: dormancy (butyrate + nitrate, low O2), time point: terminal (~4-5 doublings, model-specific)	0.0455	0.982	-0.14	-0.0574	-0.142
in vitro model: standard 7H9 glycerol, time point: constant = terminal	0.0487	0.866	-0.0174	–	0.219
in vitro model: valerate, time point: constant (~7 days, model-specific)	0.0445	0.684	0.675	–	0.299
in vitro model: valerate, time point: terminal (~4-5 doublings, model-specific)	0.0349	0.892	0.752	0.534	0.155
